Conditions: 343.15 K, Liquid, Vibrating tube method

CCCCC(=O)OCC(COC(=O)CCCC)(COC(=O)CCCC)COC(=O)CCCC [pentaerythritol tetrapentanoate]
Conditions | mass density [kg/m3]
27496 kPa | 998.3
27541 kPa | 998.4
27578 kPa | 998.4
27617 kPa | 998.5
27662 kPa | 998.4
27700 kPa | 998.5
27738 kPa | 998.5
27785 kPa | 998.6
27824 kPa | 998.6
27862 kPa | 998.5
27909 kPa | 998.6
27948 kPa | 998.7
27987 kPa | 998.7
28026 kPa | 998.7
28074 kPa | 998.7
28113 kPa | 998.8
28153 kPa | 998.7
28200 kPa | 998.8
28240 kPa | 998.9
28289 kPa | 998.9
28330 kPa | 998.9
28371 kPa | 998.8
28412 kPa | 998.9
28453 kPa | 999
28503 kPa | 998.9
28545 kPa | 999
28596 kPa | 999.1
28641 kPa | 999
28684 kPa | 999
28725 kPa | 999.2
28755 kPa | 999.2
28785 kPa | 999.3
28821 kPa | 999.1
28853 kPa | 999.3
28882 kPa | 999.3
28912 kPa | 999.2
28948 kPa | 999.2
28978 kPa | 999.3
29009 kPa | 999.3
29045 kPa | 999.5
29076 kPa | 999.4
29107 kPa | 999.3
29143 kPa | 999.5
29174 kPa | 999.4
29204 kPa | 999.5
29242 kPa | 999.5
29275 kPa | 999.5
29306 kPa | 999.5
29338 kPa | 999.6
29375 kPa | 999.6
29406 kPa | 999.6
29437 kPa | 999.6
29474 kPa | 999.6
29506 kPa | 999.7
29538 kPa | 999.7
29576 kPa | 999.7
29607 kPa | 999.7
29639 kPa | 999.8
29671 kPa | 999.8
29710 kPa | 999.8
29741 kPa | 999.9
29780 kPa | 999.8
29812 kPa | 999.9
29845 kPa | 999.9
29878 kPa | 999.9
29917 kPa | 1000
29950 kPa | 999.9
29983 kPa | 1000.1
30022 kPa | 999.9
30056 kPa | 1000
30088 kPa | 999.9
30128 kPa | 1000.2
30194 kPa | 1000.1
30227 kPa | 1000.2
30266 kPa | 1000.1
30299 kPa | 1000.3
30333 kPa | 1000.3
30374 kPa | 1000.1
30407 kPa | 1000.2
30441 kPa | 1000.2
30480 kPa | 1000.3
30514 kPa | 1000.3
30549 kPa | 1000.3
30590 kPa | 1000.5
30624 kPa | 1000.3
30658 kPa | 1000.4
30698 kPa | 1000.5
30733 kPa | 1000.5
30767 kPa | 1000.5
30808 kPa | 1000.6
30843 kPa | 1000.4
30878 kPa | 1000.6
30919 kPa | 1000.5
30954 kPa | 1000.5
30990 kPa | 1000.7
31031 kPa | 1000.7
31067 kPa | 1000.8
31103 kPa | 1000.6
31138 kPa | 1000.7
31181 kPa | 1000.7
31216 kPa | 1000.7
31252 kPa | 1000.8
31294 kPa | 1000.8
31330 kPa | 1000.9
31366 kPa | 1000.9
31409 kPa | 1001
31444 kPa | 1000.8
31481 kPa | 1000.8
31524 kPa | 1000.8
31560 kPa | 1000.9
31597 kPa | 1000.9
31634 kPa | 1001
31678 kPa | 1001
31714 kPa | 1001
31758 kPa | 1001.1
31795 kPa | 1001
31832 kPa | 1001
31876 kPa | 1001.1
31913 kPa | 1001.1
31950 kPa | 1001.3
31995 kPa | 1001.3
32033 kPa | 1001.4
32074 kPa | 1001.2
32111 kPa | 1001.4
32156 kPa | 1001.3
32194 kPa | 1001.5
32232 kPa | 1001.2
32278 kPa | 1001.4
32438 kPa | 1001.5
32476 kPa | 1001.5
32563 kPa | 1001.6
32604 kPa | 1001.6
32643 kPa | 1001.6
32691 kPa | 1001.8
32730 kPa | 1001.6
32769 kPa | 1001.8
32816 kPa | 1001.8
32856 kPa | 1001.8
32896 kPa | 1001.8
32943 kPa | 1001.8
32983 kPa | 1001.9
33024 kPa | 1001.9
33064 kPa | 1001.9
33114 kPa | 1002
33154 kPa | 1001.9
33196 kPa | 1001.9
33244 kPa | 1002.1
33285 kPa | 1002.1
33326 kPa | 1002.2
33374 kPa | 1002
33416 kPa | 1002.1
33457 kPa | 1002.2
33507 kPa | 1002.2
33548 kPa | 1002.2
33591 kPa | 1002.3
33641 kPa | 1002.3
33684 kPa | 1002.3
33726 kPa | 1002.5
33778 kPa | 1002.4
33822 kPa | 1002.4

Reference: the NIST ThermoML archive (doi:10.1021/je060271a)
